The values that follow come from ChEMBL document CHEMBL1151521, “Balanced AT1 and AT2 angiotensin II antagonists. III. potent and orally active 5--ketosulfoxide imidazolyl biphenyl sulfonylureas” (Bioorg Med Chem Lett, 1995).

Test [1] relates to Rattus norvegicus. Kind of test: Compound was evaluated in vivo, after intravenous administration for the inhibition of the pressor response induced by A II (0.75 ug/kg) in normotensive pithed rats. It is filed as functional. As to conditions: read-out: ID50 (the source's name).
Test [2] has as its system Rattus norvegicus. In words: Compound was evaluated in vivo, after peroral administration for the inhibition of the pressor response induced by A II (0.75 ug/kg) in normotensive pithed rats. It is filed as functional. To be noted: for ED50: Rattus norvegicus, po, read-out: ID50 (the source's name).
Test [3] in a line: Concentration required for 50% inhibition of [125I]- AII binding to rabbit uterus membrane preparation (AT2). It is filed as tissue-based, Oryctolagus cuniculus.
Test [4] deals with T1, Angiotensin II receptor (AT-1) type-1 (Rattus norvegicus, UniProt P29089+P25095).
T1 sequence (P29089 whole entry): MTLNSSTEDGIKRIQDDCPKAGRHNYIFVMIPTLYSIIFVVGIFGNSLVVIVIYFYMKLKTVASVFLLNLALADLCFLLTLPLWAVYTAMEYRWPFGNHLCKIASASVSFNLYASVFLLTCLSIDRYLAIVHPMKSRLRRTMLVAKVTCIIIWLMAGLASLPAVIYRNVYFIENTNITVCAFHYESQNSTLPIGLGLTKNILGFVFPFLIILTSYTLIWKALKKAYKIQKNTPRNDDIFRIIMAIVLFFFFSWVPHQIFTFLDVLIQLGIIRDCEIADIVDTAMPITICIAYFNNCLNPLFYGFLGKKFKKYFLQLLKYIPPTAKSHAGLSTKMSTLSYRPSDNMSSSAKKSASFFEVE
T1 sequence (P25095 whole entry): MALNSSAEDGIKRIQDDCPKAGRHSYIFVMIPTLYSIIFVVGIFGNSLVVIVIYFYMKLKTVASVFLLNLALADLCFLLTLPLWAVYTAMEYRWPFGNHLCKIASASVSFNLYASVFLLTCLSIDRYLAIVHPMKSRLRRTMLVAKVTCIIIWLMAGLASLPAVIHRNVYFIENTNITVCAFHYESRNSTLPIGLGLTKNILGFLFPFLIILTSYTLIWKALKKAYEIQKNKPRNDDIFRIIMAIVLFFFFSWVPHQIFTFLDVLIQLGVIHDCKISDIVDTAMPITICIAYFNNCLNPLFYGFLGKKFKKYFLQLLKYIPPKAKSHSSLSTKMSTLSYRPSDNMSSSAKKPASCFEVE
Kind of test: Concentration required for 50% inhibition of [125I]- AII binding to rat liver membrane preparation (AT1).

`CCCc1nc(SC)c(C(=O)C[S+]([O-])c2ccccc2)n1Cc1ccc(-c2ccccc2S(=O)(=O)NC(=O)NCc2ccccc2)cc1` (configuration not stated): the values for the ED50 in test [1] and in test [2] were 0.04 mg/kg and 0.8 mg/kg, respectively. The concentration for half-maximal inhibition (IC50) stood at 2.8 nM in test [3] and 0.08 nM in test [4].

In the case of `CCCc1nc(SC)c(C(=O)C[S+]([O-])c2ccccc2)n1Cc1ccc(-c2ccccc2S(=O)(=O)NC(=O)NCC2CCCCC2)cc1` (configuration not stated), the ED50 in test [2] is 3.1 mg/kg. Also, the IC50 in test [3] turned out to be 4 nM; in test [4], 0.3 nM.

In the case of `CCCc1nc(SC)c(C(=O)C[S+]([O-])c2ccccc2)n1Cc1ccc(-c2ccccc2S(=O)(=O)NC(=O)NCc2cccs2)cc1` (configuration not stated), the ED50 in test [2] stood at 1.4 mg/kg. The results for the IC50 in test [3] and in test [4] were 3.5 nM and 0.02 nM, respectively.

On to `CCCCc1nc(SC)c(C(=O)CS(=O)(=O)c2ccccc2)n1Cc1ccc(-c2ccccc2S(=O)(=O)NC(=O)NCc2ccccc2)cc1`, for which the ED50 in test [1] is 0.02 mg/kg; in test [2] it was greater than 3 mg/kg. Further, the IC50 in test [3] came to 1.7 nM; in test [4], 0.04 nM.

On to `CCCCc1nc(SC)c(C(C)(O)C(=O)O)n1Cc1ccc(-c2ccccc2S(=O)(=O)NC(=O)NCCC)cc1` (configuration not stated), for which, in test [3], the IC50 was 8.2 nM.

With `CCCc1nc(SC)c(C(=O)C[S+]([O-])c2ccccc2)n1Cc1ccc(-c2ccccc2S(=O)(=O)NC(=O)NCC2CCCC2)cc1` (configuration not stated), in test [2], the ED50 is greater than 3 mg/kg. Further, the values for the IC50 in test [3] and in test [4] were 7 nM and 0.35 nM, respectively.

As to `CCCc1nc(SC)c(C(=O)CSc2ccccc2)n1Cc1ccc(-c2ccccc2S(=O)(=O)NC(=O)NCc2ccccc2)cc1`, the IC50 in test [3] stood at 93 nM; in test [4], 0.2 nM.

For the molecule `CCCCc1nc(SC)c(C(=O)CC(=O)c2ccccc2)n1Cc1ccc(-c2ccccc2S(=O)(=O)NC(=O)NCc2ccccc2)cc1`, the IC50 is 114 nM in test [3] and 0.2 nM in test [4].

For the molecule `CCCc1nc(SC)c(C(=O)CS(=O)(=O)c2ccc(OC)cc2)n1Cc1ccc(-c2ccccc2S(=O)(=O)NC(=O)NCc2ccccc2)cc1`, the ED50 in test [1] was 0.07 mg/kg; in test [2], 2 mg/kg. The IC50 is 2.1 nM in test [3] and 0.1 nM in test [4].

On to `CCCCc1nc(SC)c(C(=O)CS(=O)(=O)c2ccc(F)cc2)n1Cc1ccc(-c2ccccc2S(=O)(=O)NC(=O)NCc2ccccc2)cc1`, for which the values for the ED50 in test [1] and in test [2] were 0.12 mg/kg and greater than 3 mg/kg, respectively. Moreover, the IC50 in test [3] turned out to be 0.8 nM; in test [4] it was 0.06 nM.

With `CCCc1nc(SC)c(C(=O)CS(=O)(=O)c2ccccc2)n1Cc1ccc(-c2ccccc2S(=O)(=O)NC(=O)NCc2ccccc2)cc1`, the values for the ED50 in test [1] and in test [2] were 0.04 mg/kg and greater than 3 mg/kg, respectively. Besides, the IC50 in test [3] stood at 2.7 nM; in test [4] it was 0.09 nM.

In test [3], `CCCCc1nc(SC)c(C(=O)O)n1Cc1ccc(-c2ccccc2S(=O)(=O)NC(=O)NCCC)cc1` registered an IC50 of 920 nM.

Regarding `CCCCc1nc(SC)c(C(=O)O)n1Cc1ccc(-c2ccccc2S(=O)(=O)NC(=O)NCc2ccccc2)cc1`, the IC50 in test [3] turned out to be 17 nM.

As for `CCc1nc(SC)c(C(=O)C[S+]([O-])c2ccccc2)n1Cc1ccc(-c2ccccc2S(=O)(=O)NC(=O)NCc2ccccc2)cc1` (configuration not stated), the ED50 in test [1] came to 0.1 mg/kg; in test [2], 2 mg/kg. Also, the IC50 in test [3] was 1.5 nM; in test [4], 0.07 nM.

Consider `CCCc1nc(SC)c(C(=O)CC#N)n1Cc1ccc(-c2ccccc2S(=O)(=O)NC(=O)NCc2ccccc2)cc1`, for which the IC50 was 110 nM in test [3] and 0.3 nM in test [4].

Regarding `CCCc1nc(SC)c(C(C)=O)n1Cc1ccc(-c2ccccc2S(=O)(=O)NC(=O)NCc2ccccc2)cc1`, the results for the IC50 in test [3] and in test [4] were 30 nM and 0.08 nM, respectively.

As for `CCCCc1nc(SC)c(C(=O)CC(=O)OCC)n1Cc1ccc(-c2ccccc2S(=O)(=O)NC(=O)NCc2ccccc2)cc1`, the IC50 is 1 nM in test [3] and 0.09 nM in test [4].

As to `CCCCc1nc(SC)c(C(=O)C[S+]([O-])c2ccccc2)n1Cc1ccc(-c2ccccc2S(=O)(=O)NC(=O)NCc2ccccc2)cc1` (configuration not stated), the ED50 turned out to be 0.12 mg/kg in test [1] and 1.6 mg/kg in test [2]. In addition, the IC50 in test [3] was 3 nM; in test [4], 0.04 nM.

Turning to `CCCCc1nc(SC)c(C(=O)C(CCC)S(=O)(=O)c2ccccc2)n1Cc1ccc(-c2ccccc2S(=O)(=O)NC(=O)NCc2ccccc2)cc1` (configuration not stated), the IC50 came out at 180 nM in test [3] and 1.8 nM in test [4].

For `CCCCc1nc(SC)c(C(=O)CS(C)(=O)=O)n1Cc1ccc(-c2ccccc2S(=O)(=O)NC(=O)NCc2ccccc2)cc1`, the values for the ED50 in test [1] and in test [2] were 0.04 mg/kg and 1.7 mg/kg, respectively. Further, the IC50 in test [3] stood at 5.8 nM; in test [4] it was 0.08 nM.

With `CCCCc1nc(SC)c(C(=O)C[S+](C)[O-])n1Cc1ccc(-c2ccccc2S(=O)(=O)NC(=O)NCc2ccccc2)cc1` (configuration not stated), the results for the ED50 in test [1] and in test [2] were 0.06 mg/kg and 0.7 mg/kg, respectively. For the same molecule, the IC50 in test [3] was 15 nM; in test [4], 0.3 nM.

Turning to `CCCc1nc(SC)c(C(=O)C[S+]([O-])c2ccc(C)cc2)n1Cc1ccc(-c2ccccc2S(=O)(=O)NC(=O)NCc2ccccc2)cc1` (single isomer, unassigned; 7g), the values for the ED50 in test [1] and in test [2] were 0.03 mg/kg and 1.5 mg/kg, respectively. Besides, the values for the half-inhibitory concentration (IC50) in test [3] and in test [4] were 1.4 nM and 0.07 nM, respectively.

`CCCc1nc(SC)c(C(=O)C[S+]([O-])c2ccc(C)cc2)n1Cc1ccc(-c2ccccc2S(=O)(=O)NC(=O)NCc2ccccc2)cc1` (single isomer, unassigned; 7h) registered an ID50 in test [2] of 1.5 mg/kg. Also, the IC50 is 4.2 nM in test [3] and 0.03 nM in test [4].

One may read the IC50 as the concentration that gives 50% inhibition.
